{"source": "paper PMC8333425", "about": "“Discovery of a dual Ras and ARF6 inhibitor from a GPCR endocytosis screen” (Nature Communications, 2021)", "key": {"PI3K/Akt": {"system": "PI3K/Akt", "assay": "PI3K/Akt BRET sensor (Akt (PH)-RlucII / rGFP-CAAX), EGFR-mediated", "assay_type": "cell-based, human", "description": "(§1) HEK293SL cells were seeded at a density of 7.5 × 10^5 cells per 100-mm dish and 24 h later, transiently transfected as such. For receptor internalization experiments, cells were transfected with 0.12 μg AT1R-RlucII, B2R-RlucII, or β2AR-RlucII and 0.48 μg of either rGFP-CAAX (to assess removal from the PM) or rGFP-FYVE (to assess accumulation in the endosomes). For β-arrestin recruitment assays, cells were transfected with 0.48 μg of receptor-YFP along with 0.12 μg of β-arrestin-RlucII. For β-arrestin/AP-2 binding experiments, cells were transfected with 1 μg Flag-AT1R, 1 μg β2-Adaptin-YFP, and 0.12 μg β-arrestin2-RlucII. For G protein activation, cells were transfected with 3 μg of sp-Flag-AT1R along with either 4.5 μg of the Gαq-polycistronic BRET sensor or 0.24 μg of the Gαi3-RlucII and 0.6 μg of GFP10-Gγ2 and Gβ1 sensors or 0.12 μg PKN-RBD-RlucII and 0.48 μg of rGFP-CAAX. For PKC activation, cells were transfected with 3 μg of sp-Flag-AT1R and 0.18 μg of the PKC sensor. For GTPase activation experiments, cells were transfected with 1 μg Flag-AT1R, 0.48 μg of rGFP-CAAX, and either 0.12 μg of GGA3-PBD-RlucII, PAK-CRIB-RlucII or Raf-RBD-RlucII. For biosensor validation experiments, cells were additionally transfected with 500 ng Flag-K-Ras-WT, Flag-K-Ras-G12V, Flag-K-Ras-SOS-CAAX, HA-ARF6-WT, HA-ARF6-T27N, Myc-Rac1-WT, Myc-Rac1-Q61L or Myc-Rac1-T17N. For PI3K/Akt activation experiments, cells were transfected with 0.48 μg of rGFP-CAAX and 0.12 μg of Akt (PH)-RlucII. After 18 h of transfection, the media was replaced and cells were divided for subsequent experiments. Cells were detached and seeded onto poly-L-ornithine-coated 96-well flat white bottom plates (BrandTech Scientific) at a density of 2.5 × 10^4 cells per well in media. The next day, cells were washed once with Tyrode’s buffer (140 mM NaCl, 2.7 mM KCl, 1 mM CaCl2, 12 mM NaHCO3, 5.6 mM D-glucose, 0.5 mM MgCl2, 0.37 mM NaH2PO4, 25 mM HEPES, pH 7.4) and left in Tyrode’s buffer. For kinetics of β-arrestin recruitment or β-arrestin binding to receptor and AP-2 experiments, cells were serum starved for 30 min, pretreated with 21 (50 µM) or Barbadin (100 µM) for 30 min, stimulated with 100 nM AngII or 1 µM BK and BRET signals were monitored at indicated times using a Victor X Light plate reader (PerkinElmer). Coelenterazine H (final concentration of 5 µM) was added 3–5 min prior to BRET measurements. Filter set was 460/80 nm and 535/30 nm for detecting the RlucII Renilla luciferase (donor) and YFP (acceptor) light emissions, respectively. The BRET ratio was determined by calculating the ratio of the light emitted by YFP over the light emitted by the RlucII. For G protein activation, cells were serum starved, pretreated with compounds for 30 min, stimulated with 100 nM AngII for 2 min (Gαq, Gαi3, and Rho sensors) or 5 min (PKC sensor). For the kinetics of GTPase and PI3K/Akt activation, cells were serum starved, pretreated with 21 (50 µM) or Wortmannin (200 nM) for 30 min, stimulated with ligand (100 nM AngII or 100 ng/ml EGF) and BRET signals were monitored at indicated times. For concentration-response curves, cells were serum-starved, pretreated with various concentrations of compounds for 30 min and stimulated with ligand (100 nM AngII, 1 µM BK, 10 µM Isoproterenol (Iso) or 100 ng/ml EGF) in Tyrode’s buffer for 30 min for receptor internalization, 10 min for ARF6, 2 min for Rac and Rho activation and 5 min for Ras activation and PI3K/Akt activation. BRET signals were monitored using a Synergy2 (BioTek) microplate reader and coelenterazine 400a (final concentrations of 5 µM) added 3–5 min prior to BRET measurements. Filter set was 410/80 nm and 515/30 nm for detecting the RlucII Renilla luciferase (donor) and rGFP/GFP10 (acceptor) light emissions, respectively. The BRET ratio was determined by calculating the ratio of the light emitted by rGFP/GFP10 over the light emitted by the RlucII."}, "MDA-MB-231 cells": {"system": "MDA-MB-231 cells", "assay": "Cell viability assay (MTT), MDA-MB-231", "assay_type": "cell-based, human", "conditions": "for cell viability (MTT signal): S_Fig12f", "description": "(§2) MDA-MB-231 breast cancer cells and A549 lung carcinomas (1500 cells in 150 μl/well) were seeded overnight on a clear 96-well plate. Twenty-four hours later, the cells were treated with 0.1% DMSO, or different concentrations of Rasarfin (as indicated), or 10 µM of 21.4, 21.8 (MDA-MB-231 breast cancer cells) or Doxorubicin for the indicated times at 37 °C. At each time point, 10 μl of 5 mg/ml MTT was added to each well and the plates were incubated for an additional 4 h at 37 °C. The absorbance at 590 nm was measured by plate reader. Experiments were done in triplicate and repeated three times."}, "A549 cells": {"system": "A549 cells", "assay": "Cell viability assay (MTT), A549", "assay_type": "cell-based, human", "conditions": "Doxorubicin", "description": "as §2"}, "[1]": {"system": "ERK1/2 activation by AT1R", "assay": "Western blot of AT1R-mediated ERK1/2 phosphorylation", "assay_type": "cell-based, human", "conditions": "50 μM", "description": "(§3) HEK293SL cells (10^5 cells per well) were seeded in a poly-L-lysine-coated six-well plate and transiently transfected with 3 μg Flag-AT1R, HA-B2R or HA-β2AR and/or 500 ng Flag-MEK1-WT, Flag-MEK1-DD, Flag-BRAF-WT, Flag-BRAF-V600E, Flag-K-Ras-WT, Flag-K-Ras-G12V, HA-ARF6-WT, or HA-ARF6-T27N. Gαq/11 KO and βarr1/2 KO cells were seeded onto 100 mm dishes at a density of 10^6 cells per dish. Next day, cells were transfected with 3 μg AT1R alone or along with 500 ng of β-arrestin2 using PEI. After 18 h of transfection, cells were detached and re-seeded onto poly-L-lysine coated 12-well plates (~1.5–2 × 10^5cells/well) for subsequent experiments. Forty-eight hours post transfection, in a 37 °C water bath, cells were serum-starved for 30 min, pretreated with DMSO (0.1%) or compound 21/Rasarfin (50 µM or at indicated concentrations) for 30 min, then stimulated or not with the indicated ligand [AngII (1 µM), BK (1 µM), Iso (10 µM) or EGF (100 ng/ml)] at indicated times. Cells were put on ice, washed with PBS and solubilized in 2x laemmli buffer (250 mM Tris–HCl pH 6.8, 2% SDS (w/v), 10% glycerol (v/v), 0.01% bromophenol blue (w/v) and 5% β-mercaptoethanol (v/v)) by heating at 65 °C for 15 min. Lysates were resolved on 10 or 14% SDS-PAGE, transferred to nitrocellulose membranes and immunoblotted for p-ERK1/2, ERK1/2, p-Akt, Akt, HA, Myc, β-actin or FLAG. ImageLab 5.2 software was used to quantify the digital blots as fold of the phosphorylated protein over total protein, which were then normalized as indicated in the figure legends. Uncropped immunoblots are provided in the Source Data file."}, "Gαq": {"target": "T1, Gαq (Homo sapiens, UniProt P50148)", "T1 construct": "expressed in transfected cells; host or cells: HEK293SL", "T1 sequence (P50148 whole entry)": "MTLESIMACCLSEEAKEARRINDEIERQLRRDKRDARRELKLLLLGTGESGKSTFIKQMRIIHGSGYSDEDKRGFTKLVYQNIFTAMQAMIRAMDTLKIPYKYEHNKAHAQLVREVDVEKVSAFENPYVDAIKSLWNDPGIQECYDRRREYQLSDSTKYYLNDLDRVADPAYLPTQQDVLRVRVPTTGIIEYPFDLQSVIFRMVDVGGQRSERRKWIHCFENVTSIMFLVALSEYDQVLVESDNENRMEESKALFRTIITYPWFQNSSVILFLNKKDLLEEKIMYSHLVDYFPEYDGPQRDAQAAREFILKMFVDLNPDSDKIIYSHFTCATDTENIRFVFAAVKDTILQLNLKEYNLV", "T1 sequence (P62873 whole entry partner)": "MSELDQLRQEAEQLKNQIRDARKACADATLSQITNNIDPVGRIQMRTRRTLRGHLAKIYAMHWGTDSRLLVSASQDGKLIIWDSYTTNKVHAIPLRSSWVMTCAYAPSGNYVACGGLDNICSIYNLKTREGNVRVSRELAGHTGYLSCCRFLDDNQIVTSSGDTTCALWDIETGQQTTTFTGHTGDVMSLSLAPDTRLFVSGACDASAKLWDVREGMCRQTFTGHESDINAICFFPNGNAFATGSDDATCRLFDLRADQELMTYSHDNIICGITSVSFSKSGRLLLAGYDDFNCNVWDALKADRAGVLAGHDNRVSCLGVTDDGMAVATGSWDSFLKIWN", "T1 sequence (P63211 2-71 partner limits assumed)": "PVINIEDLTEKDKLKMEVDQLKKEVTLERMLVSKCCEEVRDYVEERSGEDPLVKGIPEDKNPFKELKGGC", "assay": "Gαq BRET sensor, AT1R-mediated", "assay_type": "cell-based", "description": "as §1, with “The next day, cells were washed once with Tyrode’s buffer (140 mM NaCl, 2.7 mM KCl, 1 mM CaCl2, 12 mM NaHCO3, 5.6 mM D-glucose, 0.5 mM MgCl2, 0.37 mM NaH2PO4, 25 mM HEPES, pH 7.4) and left in Tyrode’s buffer.” left out, “Coelenterazine H (final concentration of 5 µM) was added 3–5 min prior to BRET measurements. Filter set was 460/80 nm and 535/30 nm for detecting the RlucII Renilla luciferase (donor) and YFP (acceptor) light emissions, respectively.” left out, “For G protein activation, cells were serum starved, pretreated with compounds for 30 min, stimulated with 100 nM AngII for 2 min (Gαq, Gαi3, and Rho sensors) or 5 min (PKC sensor).” left out, “For concentration-response curves, cells were serum-starved, pretreated with various concentrations of compounds for 30 min and stimulated with ligand (100 nM AngII, 1 µM BK, 10 µM Isoproterenol (Iso) or 100 ng/ml EGF) in Tyrode’s buffer for 30 min for receptor internalization, 10 min for ARF6, 2 min for Rac and Rho activation and 5 min for Ras activation and PI3K/Akt activation.” left out, “Filter set was 410/80 nm and 515/30 nm for detecting the RlucII Renilla luciferase (donor) and rGFP/GFP10 (acceptor) light emissions, respectively.” left out"}, "MEK1": {"system": "MEK1", "assay": "Western blot of ERK1/2 phosphorylation induced by MEK1 (MEK1-WT / MEK1-DD)", "assay_type": "cell-based, human", "description": "as §3"}}, "note": "“And” between values parts separate entries of the source, which are not always exact repeats. Equal entries are not always repeated. Numbered stars: 1 amine (or outer) side, 2 acyl side, 3 side chain; on linkers, the order of the positions; unused ones are H or OH. Bridge positions count the residues as written; N and C are the ends. Square brackets hold non-standard residues; d marks the D form. Peptide text beside a SMILES is read from it. * marks the point of attachment. Leu(3R-OH,Nα-propionyl) = CCC(=O)N[C@H](C(=O)*)[C@H](O)C(C)C; X1 = CC(C)[C@@H](O[*:3])[C@H](N[*:1])C(=O)[*:2]; NMeT = CN[C@H](C(=O)O)[C@@H](C)O; dPhLac = O=C(O)[C@H](O)Cc1ccccc1; NMeA = CN[C@@H](C)C(=O)O; NMeDha = C=C(NC)C(=O)O", "data": [{"compound": "EGF", "values": [{"measurement": "EGF-promoted BRET", "setting": "PI3K/Akt; EGF 100 ng/ml, time 0 min", "result": 0}, {"measurement": "EGF-promoted BRET", "setting": "PI3K/Akt; EGF 100 ng/ml, time 1 min", "result": "0.3827 and 0.39"}, {"measurement": "EGF-promoted BRET", "setting": "PI3K/Akt; EGF 100 ng/ml, time 2 min", "result": "0.5443 and 0.5547"}, {"measurement": "EGF-promoted BRET", "setting": "PI3K/Akt; EGF 100 ng/ml, time 3 min", "result": "0.521 and 0.605"}, {"measurement": "EGF-promoted BRET", "setting": "PI3K/Akt; EGF 100 ng/ml, time 4 min", "result": "0.6008 and 0.512 and 0.5428"}, {"measurement": "EGF-promoted BRET", "setting": "PI3K/Akt; EGF 100 ng/ml, time 5 min", "result": "0.5307 and 0.4867 and 0.5263"}]}, {"compound": "COc1cccc2c1C(=O)c1c(O)c3c(c(O)c1C2=O)C[C@@](O)(C(=O)CO)C[C@@H]3O[C@H]1C[C@H](N)[C@H](O)[C@H](C)O1", "note": "[Doxorubicin, reference compound]", "values": [{"measurement": "MDA-MB-231 cell viability (MTT)", "setting": "MDA-MB-231 cells; Doxorubicin 10 µM", "result": "potently killed cells"}, {"measurement": "cell viability (MTT signal)", "setting": "MDA-MB-231 cells; 24h", "result": "0.213 and 0.2235 and 0.2068"}, {"measurement": "cell viability (MTT signal)", "setting": "MDA-MB-231 cells; 48h", "result": "0.2026 and 0.1628 and 0.1313"}, {"measurement": "cell viability (MTT signal)", "setting": "MDA-MB-231 cells; 72h", "result": "0.1199 and 0.1728 and 0.1331"}, {"measurement": "cell viability (MTT signal)", "setting": "A549 cells; 24h", "result": "0.213 and 0.2235 and 0.2068"}, {"measurement": "cell viability (MTT signal)", "setting": "A549 cells; 48h", "result": "0.2026 and 0.1628 and 0.1313"}, {"measurement": "cell viability (MTT signal)", "setting": "A549 cells; 72h", "result": "0.1331 and 0.1199 and 0.1728"}]}, {"compound": "CCC(=O)N1CCN(c2ccc(NC(=O)c3cc4ccccc4o3)cc2Cl)CC1", "note": "[Compound 21.2]", "values": [{"measurement": "inhibition of AT1R-mediated ERK1/2 (MAPK) activation (Fig. 8b)", "setting": "[1]", "result": "lost their ability to inhibit MAPK"}]}, {"compound": "COC[C@H]1OC(=O)c2coc3c2[C@@]1(C)C1=C(C3=O)[C@@H]2CCC(=O)[C@@]2(C)C[C@H]1OC(C)=O", "note": "[Wortmannin, reference compound]", "values": [{"measurement": "EGF-promoted BRET", "setting": "PI3K/Akt; Wortmannin-treated, Log [EGF] (ng/ml) -12", "result": 0}]}, {"compound": "C=C1C(=O)N[C@@H](C)C(=O)N(C)[C@@H](C)C(=O)N[C@@H]([C@H](OC(=O)[C@@H](NC(=O)CC)[C@H](O)C(C)C)C(C)C)C(=O)N(C)[C@@H]([C@@H](C)OC)C(=O)O[C@H](C(C)C)[C@H](NC(C)=O)C(=O)O[C@H](Cc2ccccc2)C(=O)N1C", "note": "[UBO-QIC, reference compound] (Ac-[X1][dPhLac][NMeDha]A[NMeA][X1](Leu(3R-OH,Nα-propionyl))[NMeT](Me); ester 1-C)", "values": [{"measurement": "Gq BRET sensor signal (S_Fig.4b), single experiments", "setting": "Gαq", "result": "0.0505 and 0.06125 and 0.044"}]}, {"compound": "O=C(NOCC1CC1)c1ccc(F)c(F)c1Nc1ccc(I)cc1Cl", "note": "[PD184352, reference compound]", "values": [{"measurement": "Predicted (LS) mean diff. DMSO vs. compound (Bonferroni's multiple comparisons test)", "setting": "MEK1; Flag-MEK1 DD", "result": 3.803}, {"measurement": "ERK1/2 phosphorylation relative to mock (S_Fig.4c)", "setting": "MEK1; Flag-MEK1 WT", "result": "0.4899 and 0.8 and 0.4446"}, {"measurement": "Predicted (LS) mean diff. DMSO vs. compound (Bonferroni's multiple comparisons test)", "setting": "MEK1; Flag-MEK1 WT", "result": 0.8426}, {"measurement": "ERK1/2 phosphorylation relative to mock (S_Fig.4c)", "setting": "MEK1; mock", "result": 1}, {"measurement": "Predicted (LS) mean diff. DMSO vs. compound (Bonferroni's multiple comparisons test)", "setting": "MEK1; mock", "result": 0}]}]}
